By EC50 is commonly meant the concentration that produces a half-maximal response. A lower EC50 goes with an effect from little substance.

Structures are written as SMILES.

In this assay the target is T1, Isoform 2 of Nuclear receptor ROR-alpha (Alpha-2) (Homo sapiens, UniProt P35398).
T1 sequence (P35398 whole entry): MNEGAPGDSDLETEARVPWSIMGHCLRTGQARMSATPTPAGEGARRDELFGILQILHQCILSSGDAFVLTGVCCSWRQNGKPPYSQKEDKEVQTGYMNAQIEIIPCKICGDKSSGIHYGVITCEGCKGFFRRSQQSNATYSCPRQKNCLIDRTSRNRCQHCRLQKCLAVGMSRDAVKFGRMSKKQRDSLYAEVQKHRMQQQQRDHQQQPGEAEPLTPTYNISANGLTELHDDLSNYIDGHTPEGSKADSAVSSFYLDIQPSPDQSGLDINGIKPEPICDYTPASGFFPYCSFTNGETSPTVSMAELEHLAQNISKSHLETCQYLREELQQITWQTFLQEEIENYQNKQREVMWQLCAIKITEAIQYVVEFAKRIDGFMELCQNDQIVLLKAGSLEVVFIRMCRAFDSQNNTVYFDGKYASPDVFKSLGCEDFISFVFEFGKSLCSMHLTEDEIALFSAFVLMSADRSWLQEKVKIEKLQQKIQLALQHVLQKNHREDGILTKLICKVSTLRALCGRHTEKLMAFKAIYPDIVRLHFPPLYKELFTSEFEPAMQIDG
As to the kind of experiment: activators of RORA nuclear receptor, dose response, cell-based, CHO-K1, Gal4-RORA LBD, luciferase luminescence (AID 681).
Regarding `O=C1OC(N2CCN(Cc3ccccc3)CC2)c2ccccc21` (centres undefined) [3-(4-benzylpiperazin-1-yl)-3H-2-benzofuran-1-one], the concentration for a half-maximal effect (EC50) is more than 99000 nM.

Molecule `CCOc1ccc2nc(NC(=O)c3cnccn3)sc2c1` [MLS000070707] came in with an EC50 of more than 136 nM. The value for `CCCCOC(=O)C(C)Oc1ccc(=O)n(-c2ccccc2)n1` (centres undefined) [2-(6-keto-1-phenyl-pyridazin-3-yl)oxypropionic acid butyl ester] was more than 99000 nM; that for `O=C(Nc1ccc(N2CCCCC2)cc1)c1cncc(Br)c1` [5-bromanyl-N-(4-piperidin-1-ylphenyl)pyridine-3-carboxamide] was 1020 nM; that for `O=C(c1ccc(-c2nnc(-c3ccccc3)o2)cc1)N1CCCCCC1` [1-azepanyl-[4-(5-phenyl-1,3,4-oxadiazol-2-yl)phenyl]methanone] was 282 nM. The value for `COCCOC(=O)c1[nH]c2c(c1C)C(=O)CC(c1cc(OC)ccc1OC)C2` (centres undefined) [2-methoxyethyl 6-(2,5-dimethoxyphenyl)-3-methyl-4-oxo-1,5,6,7-tetrahydroindole-2-carboxylate] was more than 3670 nM; that for `CC1=CCC(COC(=O)Nc2ccccc2)CC1` (centres undefined) [(4-methylcyclohex-3-en-1-yl)methyl N-phenylcarbamate] was 1530 nM. The value for `COc1ccc(C(=O)Nc2cc(C)on2)cc1` [4-methoxy-N-(5-methyl-1,2-oxazol-3-yl)benzamide] was 1050 nM; that for `Oc1ccc(Cl)cc1C=Nc1nc2ccccc2[nH]1` [SMR000103225] was more than 99000 nM.

The values above are taken from BindingDB's records for doi:10.7270/Q2RJ4GVG (The Scripps Research Institute Molecular Screening Center, 2007).
